Laboratory results: ChEMBL document CHEMBL6083240, “Design, synthesis and biological evaluation of arylpropylamine derivatives as potential multi-target antidepressants” (Bioorg Med Chem, 2024)
Activity calls are given as the source filed them. No cut-off for these calls is given here.

Assays:
[1] = biological target: Sodium-dependent serotonin transporter (Rattus norvegicus, UniProt P31652); test: Antagonist activity at rat cerebral cortex membrane SERT incubated for 10 mins in presence of [3H]5-HT; format: cell membranes
Chain of Sodium-dependent serotonin transporter (P31652 whole entry): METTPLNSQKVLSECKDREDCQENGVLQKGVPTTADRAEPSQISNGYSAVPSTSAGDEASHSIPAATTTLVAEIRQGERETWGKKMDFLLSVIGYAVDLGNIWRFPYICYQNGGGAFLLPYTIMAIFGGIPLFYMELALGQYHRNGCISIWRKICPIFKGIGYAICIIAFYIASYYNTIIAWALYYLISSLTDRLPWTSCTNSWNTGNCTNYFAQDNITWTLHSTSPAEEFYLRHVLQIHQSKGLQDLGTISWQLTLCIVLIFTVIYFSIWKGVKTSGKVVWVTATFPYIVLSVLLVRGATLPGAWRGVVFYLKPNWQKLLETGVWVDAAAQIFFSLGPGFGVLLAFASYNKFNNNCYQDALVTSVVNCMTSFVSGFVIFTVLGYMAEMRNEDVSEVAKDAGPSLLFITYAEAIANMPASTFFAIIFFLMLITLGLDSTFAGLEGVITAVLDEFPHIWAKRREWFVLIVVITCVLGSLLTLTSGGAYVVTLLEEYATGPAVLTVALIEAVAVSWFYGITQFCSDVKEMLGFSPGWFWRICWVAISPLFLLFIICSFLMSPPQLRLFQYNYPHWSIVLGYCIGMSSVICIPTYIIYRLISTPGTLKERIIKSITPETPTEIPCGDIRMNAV

[2] = Acute toxicity in po dosed Sprague-Dawley rat assessed as mortality rate measured after 24 hrs; format: organism-based; settings: in vivo
[3] = biological target: T1, 5-hydroxytryptamine receptor 2C (Homo sapiens) (UniProt P28335); test: Antagonist activity at 5-HT2C in HEK293 cells at 10 uM incubated for 60 mins by FLIPR assay relative to control; format: cell-based; set-up: scale not given: the % may be the effect or the level left; settings: filed as antagonist
T1 sequence (whole entry): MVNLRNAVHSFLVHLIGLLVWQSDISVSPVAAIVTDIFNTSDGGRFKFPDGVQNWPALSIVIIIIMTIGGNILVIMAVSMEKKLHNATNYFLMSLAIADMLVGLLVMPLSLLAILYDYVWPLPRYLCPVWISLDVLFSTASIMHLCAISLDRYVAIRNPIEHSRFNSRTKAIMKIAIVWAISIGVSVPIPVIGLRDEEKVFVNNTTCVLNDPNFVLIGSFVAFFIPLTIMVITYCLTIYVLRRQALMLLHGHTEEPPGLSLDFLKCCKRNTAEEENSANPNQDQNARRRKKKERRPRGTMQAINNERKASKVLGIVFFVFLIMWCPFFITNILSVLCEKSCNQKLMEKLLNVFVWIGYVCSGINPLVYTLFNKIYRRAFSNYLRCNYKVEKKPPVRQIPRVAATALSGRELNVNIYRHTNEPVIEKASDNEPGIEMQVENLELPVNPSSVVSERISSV

D(2) dopamine receptor = D(2) dopamine receptor (Homo sapiens, UniProt P14416); test: Binding affinity to D2 receptor (unknown origin)
Chain of D(2) dopamine receptor (P14416 whole entry): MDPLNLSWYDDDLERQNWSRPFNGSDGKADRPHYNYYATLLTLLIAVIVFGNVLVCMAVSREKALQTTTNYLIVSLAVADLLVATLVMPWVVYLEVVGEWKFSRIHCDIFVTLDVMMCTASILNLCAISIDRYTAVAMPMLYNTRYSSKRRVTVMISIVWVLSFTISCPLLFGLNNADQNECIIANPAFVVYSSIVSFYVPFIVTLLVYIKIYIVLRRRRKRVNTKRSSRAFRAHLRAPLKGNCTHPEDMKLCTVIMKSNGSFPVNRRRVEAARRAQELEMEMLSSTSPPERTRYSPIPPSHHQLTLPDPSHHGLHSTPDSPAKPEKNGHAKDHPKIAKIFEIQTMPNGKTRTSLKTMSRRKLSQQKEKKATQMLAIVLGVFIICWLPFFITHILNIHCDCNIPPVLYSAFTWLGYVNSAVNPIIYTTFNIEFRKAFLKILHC

D(1A) dopamine receptor = D(1A) dopamine receptor (Homo sapiens, UniProt P21728); test: Binding affinity to D1 receptor (unknown origin)
Chain of D(1A) dopamine receptor (P21728 whole entry): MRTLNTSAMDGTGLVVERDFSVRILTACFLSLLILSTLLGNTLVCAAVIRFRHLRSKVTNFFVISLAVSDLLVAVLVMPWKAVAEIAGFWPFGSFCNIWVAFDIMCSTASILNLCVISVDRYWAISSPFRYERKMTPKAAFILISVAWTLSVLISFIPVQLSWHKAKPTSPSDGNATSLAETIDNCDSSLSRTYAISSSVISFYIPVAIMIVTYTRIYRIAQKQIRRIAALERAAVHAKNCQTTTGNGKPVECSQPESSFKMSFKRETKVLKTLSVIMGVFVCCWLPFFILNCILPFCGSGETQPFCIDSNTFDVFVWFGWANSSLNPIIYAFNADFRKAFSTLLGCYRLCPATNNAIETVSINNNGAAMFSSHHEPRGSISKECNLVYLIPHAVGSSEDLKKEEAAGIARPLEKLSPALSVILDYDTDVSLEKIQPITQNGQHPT

Rattus norvegicus = test: Antidepressant activity against ig dosed ACTH-induced treatment resistant depression in Sprague-Dawley rat model assessed as reduction in immobility time by forced swimming test; format: functional; settings: po
Transporter [4] = biological target: T2, Transporter (Rattus norvegicus, UniProt Q63380); test: Antagonist activity at rat cerebral cortex membrane NET incubated for 10 mins in presence of [3H]-NE; format: cell membranes
T2 sequence (Q63380 whole entry): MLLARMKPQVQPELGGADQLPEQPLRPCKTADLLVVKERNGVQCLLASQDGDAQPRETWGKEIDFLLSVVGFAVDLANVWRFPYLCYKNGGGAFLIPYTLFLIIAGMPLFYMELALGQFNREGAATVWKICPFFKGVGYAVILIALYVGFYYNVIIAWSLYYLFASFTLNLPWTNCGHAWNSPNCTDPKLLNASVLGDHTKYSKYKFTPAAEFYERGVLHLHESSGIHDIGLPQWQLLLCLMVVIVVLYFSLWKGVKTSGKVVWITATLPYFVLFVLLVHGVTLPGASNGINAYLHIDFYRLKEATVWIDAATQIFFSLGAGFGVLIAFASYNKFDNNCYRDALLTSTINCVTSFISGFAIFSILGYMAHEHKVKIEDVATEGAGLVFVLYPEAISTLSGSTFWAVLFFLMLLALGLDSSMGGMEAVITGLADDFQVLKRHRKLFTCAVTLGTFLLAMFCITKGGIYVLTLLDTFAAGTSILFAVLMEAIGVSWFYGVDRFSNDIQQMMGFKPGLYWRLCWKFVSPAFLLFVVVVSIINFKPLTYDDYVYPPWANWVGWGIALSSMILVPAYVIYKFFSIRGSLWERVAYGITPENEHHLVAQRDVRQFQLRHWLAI

Mus musculus [5] = test: Antidepressant activity in IG dosed Kunming mouse assessed as decrease in immobility time by measuring minimal effective dose by tail suspension test; format: functional
[6] = biological target: T3, Alpha-1A adrenergic receptor (Rattus norvegicus, UniProt P43140); test: Displacement of [3H]-prazosin from adrenergic alpha-1 receptor in rat cerebral cortex incubated for 60 mins by liquid scintillation counting method; format: toxicity, tissue-based
T3 sequence (P43140 whole entry): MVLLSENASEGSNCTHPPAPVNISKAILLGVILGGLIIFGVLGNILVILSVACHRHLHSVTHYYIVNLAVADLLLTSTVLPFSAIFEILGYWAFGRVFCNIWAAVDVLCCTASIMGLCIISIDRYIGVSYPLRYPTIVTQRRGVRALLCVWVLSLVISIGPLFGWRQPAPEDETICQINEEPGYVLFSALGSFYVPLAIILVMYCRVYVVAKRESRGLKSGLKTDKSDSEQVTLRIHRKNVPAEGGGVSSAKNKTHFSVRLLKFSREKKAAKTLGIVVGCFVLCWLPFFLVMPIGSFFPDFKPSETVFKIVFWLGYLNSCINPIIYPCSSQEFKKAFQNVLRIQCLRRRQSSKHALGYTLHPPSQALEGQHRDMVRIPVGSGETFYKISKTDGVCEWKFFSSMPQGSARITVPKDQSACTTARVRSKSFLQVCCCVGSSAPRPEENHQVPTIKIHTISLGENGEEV

[7] = Cmax in CD1 mouse at 2 mg/kg, iv measured upto 10 hrs by LC-MS analysis; format: ADME, organism-based; settings: in vivo
[8] = biological target: 5-hydroxytryptamine receptor 7 (Homo sapiens, UniProt P34969); test: Binding affinity to 5-HT7 receptor (unknown origin)
Chain of 5-hydroxytryptamine receptor 7 (P34969 whole entry): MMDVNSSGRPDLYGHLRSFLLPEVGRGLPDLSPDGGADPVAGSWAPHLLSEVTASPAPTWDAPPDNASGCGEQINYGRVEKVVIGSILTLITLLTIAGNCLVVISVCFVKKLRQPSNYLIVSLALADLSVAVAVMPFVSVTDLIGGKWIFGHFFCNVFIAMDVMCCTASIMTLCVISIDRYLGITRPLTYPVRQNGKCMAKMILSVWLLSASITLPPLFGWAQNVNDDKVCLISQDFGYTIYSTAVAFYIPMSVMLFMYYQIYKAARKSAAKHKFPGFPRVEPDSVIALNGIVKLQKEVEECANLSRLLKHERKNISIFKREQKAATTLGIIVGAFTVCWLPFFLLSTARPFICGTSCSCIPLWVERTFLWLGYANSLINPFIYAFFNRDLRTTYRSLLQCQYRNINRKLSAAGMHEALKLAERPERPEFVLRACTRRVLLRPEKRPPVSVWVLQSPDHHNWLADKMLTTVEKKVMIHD

[9] = AUC(0 to infinity) in CD1 mouse at 2 mg/kg, iv measured upto 10 hrs by LC-MS analysis; format: ADME, organism-based; settings: in vivo
[10] = biological target: Glutamate [NMDA] receptor; test: Binding affinity to NMDA receptor (unknown origin); format: protein-complex assay, Homo sapiens
[11] = biological target: Muscarinic acetylcholine receptor M2 (Homo sapiens, UniProt P08172); test: Binding affinity to M2 receptor (unknown origin)
Chain of Muscarinic acetylcholine receptor M2 (P08172 whole entry): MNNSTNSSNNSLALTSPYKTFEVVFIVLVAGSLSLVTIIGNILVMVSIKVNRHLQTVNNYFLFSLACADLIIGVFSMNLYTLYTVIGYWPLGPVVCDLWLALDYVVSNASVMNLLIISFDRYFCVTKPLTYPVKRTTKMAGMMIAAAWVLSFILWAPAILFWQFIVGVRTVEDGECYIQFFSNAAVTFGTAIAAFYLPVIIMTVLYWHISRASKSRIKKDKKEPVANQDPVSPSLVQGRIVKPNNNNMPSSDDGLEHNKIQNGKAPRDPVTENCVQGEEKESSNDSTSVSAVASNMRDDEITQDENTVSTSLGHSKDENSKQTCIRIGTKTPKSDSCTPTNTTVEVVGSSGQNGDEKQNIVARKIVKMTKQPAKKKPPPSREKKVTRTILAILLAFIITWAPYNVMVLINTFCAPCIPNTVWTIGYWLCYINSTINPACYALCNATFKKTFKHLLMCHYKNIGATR

[12] = Cmax in CD1 mouse at 15 mg/kg, po measured upto 24 hrs by LC-MS analysis; format: ADME, organism-based; settings: in vivo
[13] = MRTlast in CD1 mouse at 2 mg/kg, iv measured upto 10 hrs by LC-MS analysis; format: ADME, organism-based; settings: in vivo
[14] = AUC(0 to t) in CD1 mouse at 2 mg/kg, iv measured upto 10 hrs by LC-MS analysis; format: ADME, organism-based; settings: in vivo
[15] = biological target: 5-hydroxytryptamine receptor 2C (Homo sapiens, UniProt P28335); test: Antagonist activity at 5-HT2C in HEK293 cells incubated for 60 mins by FLIPR assay; format: cell-based
[16] = biological target: 5-hydroxytryptamine receptor 1A (Homo sapiens, UniProt P08908); test: Binding affinity to 5-HT1A receptor (unknown origin)
Chain of 5-hydroxytryptamine receptor 1A (P08908 whole entry): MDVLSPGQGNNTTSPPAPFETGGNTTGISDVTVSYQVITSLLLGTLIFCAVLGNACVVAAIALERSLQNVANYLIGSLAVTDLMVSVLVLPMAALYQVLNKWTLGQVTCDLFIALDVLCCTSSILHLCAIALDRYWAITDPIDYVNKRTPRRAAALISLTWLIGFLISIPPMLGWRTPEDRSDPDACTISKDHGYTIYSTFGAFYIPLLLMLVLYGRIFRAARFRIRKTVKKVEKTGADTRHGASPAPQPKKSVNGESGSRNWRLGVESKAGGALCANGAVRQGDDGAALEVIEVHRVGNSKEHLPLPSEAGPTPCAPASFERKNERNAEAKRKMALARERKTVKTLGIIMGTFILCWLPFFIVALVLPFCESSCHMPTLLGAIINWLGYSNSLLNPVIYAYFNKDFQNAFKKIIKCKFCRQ

Mus musculus [17] = test: Antidepressant activity in Kunming mouse chronic unpredictable mild stress model assessed as increase in sucrose preference at 0.5 to 6 mg/kg, IG measured after 1 week; format: functional, organism-based; settings: dose 0.5-6 mg/kg, time 1.0 weeks
[18] = biological target: Muscarinic acetylcholine receptor M1 (Homo sapiens, UniProt P11229); test: Binding affinity to M1 receptor (unknown origin)
Chain of Muscarinic acetylcholine receptor M1 (P11229 whole entry): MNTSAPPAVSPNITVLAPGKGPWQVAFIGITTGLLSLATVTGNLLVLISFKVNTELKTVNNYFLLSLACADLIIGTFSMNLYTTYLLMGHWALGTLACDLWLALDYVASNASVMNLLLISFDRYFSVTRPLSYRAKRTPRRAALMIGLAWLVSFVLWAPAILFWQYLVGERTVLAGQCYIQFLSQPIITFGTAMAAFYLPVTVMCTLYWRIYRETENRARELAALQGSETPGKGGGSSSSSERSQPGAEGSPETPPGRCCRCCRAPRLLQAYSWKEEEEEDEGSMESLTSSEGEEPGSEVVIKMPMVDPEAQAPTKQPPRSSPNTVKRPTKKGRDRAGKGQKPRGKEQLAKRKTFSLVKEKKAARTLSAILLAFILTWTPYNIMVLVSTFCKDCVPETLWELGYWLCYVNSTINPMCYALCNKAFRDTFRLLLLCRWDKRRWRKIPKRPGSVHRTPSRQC

[19] = Half-life in CD1 mouse at 15 mg/kg, po measured upto 24 hrs by LC-MS analysis; format: ADME, organism-based; settings: in vivo
[20] = biological target: T4, 5-hydroxytryptamine receptor 2C (Rattus norvegicus, UniProt P08909); test: Displacement of [3H]-mesulergine from 5-HT2C in rat cerebral cortex incubated for 15 mins by liquid scintillation counting method; format: tissue-based
T4 sequence (P08909 whole entry): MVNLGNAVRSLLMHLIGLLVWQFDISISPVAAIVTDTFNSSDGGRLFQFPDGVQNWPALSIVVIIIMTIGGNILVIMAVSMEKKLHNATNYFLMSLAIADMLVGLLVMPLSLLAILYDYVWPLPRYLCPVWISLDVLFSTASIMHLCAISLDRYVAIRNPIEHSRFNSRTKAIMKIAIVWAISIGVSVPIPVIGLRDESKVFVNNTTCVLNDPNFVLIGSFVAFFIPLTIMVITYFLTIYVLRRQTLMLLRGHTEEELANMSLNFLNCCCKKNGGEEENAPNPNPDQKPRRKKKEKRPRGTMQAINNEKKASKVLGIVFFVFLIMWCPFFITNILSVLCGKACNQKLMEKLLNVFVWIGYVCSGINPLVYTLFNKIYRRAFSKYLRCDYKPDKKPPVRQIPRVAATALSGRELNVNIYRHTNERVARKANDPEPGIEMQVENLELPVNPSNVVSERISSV

[21] = biological target: Transporter (Rattus norvegicus) (UniProt Q63380); test: Agonist activity at rat cerebral cortex membrane NET at 10 uM incubated for 10 mins in presence of [3H]-NE relative to control; format: cell membranes
Chain of Transporter (Rattus norvegicus) (Q63380 as listed by the source): as the sequence (Q63380 whole entry) above

Transporter [22] = biological target: T2, Transporter; test: Displacement of [3H]-nisoxetine from NET in rat hippocampal membrane incubated for 8 hrs by liquid scintillation counting method; format: cell membranes, Hippocampus
[23] = Half-life in CD1 mouse at 2 mg/kg, iv measured upto 10 hrs by LC-MS analysis; format: ADME, organism-based; settings: in vivo

For `CN(C)CC[C@@H](Oc1cccc2c1OCO2)c1ccc(F)cc1.O=C(O)C(=O)O`, which IC50 [1] is on record?
The IC50 was 23.2 nM.

And the LD50 at 24 h [2]?
The LD50 at 24 h was 560 mg/kg.

And the Activity [3]?
The Activity was 99.1%.

And the Ki (D(2) dopamine receptor)?
The Ki was over 1000 nM.

What about the Ki (D(1A) dopamine receptor) of the same compound?
The Ki was over 1000 nM.

What about the ED50 (Rattus norvegicus) of the same compound?
Its ED50 is 23.1 mg/kg.

And the IC50 (Transporter [4])?
Its IC50 is 87 nM.

And the Activity (Mus musculus [5])?
Its Activity is “Dose-dependent-effect”.

And the minimal effective dose (Mus musculus [5]; po, read-out: MED)?
Its minimal effective dose is 6.4 mg/kg.

And the Ki [6]?
The Ki was 1450 nM.

What about the Cmax [7] of the same compound?
The Cmax was 420 ng/mL.

And the Ki [8]?
Its Ki is over 1000 nM.

What about the AUC(0-inf) [9] of the same compound?
Its AUC(0-inf) is 310 ng·h/mL.

And the Ki [10]?
Its Ki is over 1000 nM.

What about the Ki [11] of the same compound?
The Ki was over 1000 nM.

What about the Cmax [12] of the same compound?
Its Cmax is 144 ng/mL.

And the MRT last at 10 h [13]?
Its MRT last at 10 h is 1.1 h.

What about the AUC(0-t) at 10 h [14] of the same compound?
The AUC(0-t) at 10 h was 304 ng·h/mL.

And the IC50 [15]?
Its IC50 is 87.5 nM.

What about the Ki [16] of the same compound?
The Ki was over 1000 nM.

And the Activity (Mus musculus [17])?
The Activity was “inactive”.

And the Ki [18]?
The Ki was 640 nM.

And the half-life [19]?
The half-life was 1.8 h.

What about the Ki [20] of the same compound?
Its Ki is 15.7 nM.

And the Activity [21]?
The Activity was 5.6%.

What about the Ki (Transporter [22]) of the same compound?
The Ki was 2.3 nM.

And the half-life [23]?
Its half-life is 1.2 h.
